Data published in patent publication US20250032430A1, “USES OF RHODOQUINONE FOR THE TREATMENT OF DISEASE” (Whitehead Institute for Biomedical Research, priority 2021, published 2025).
One block for each compound: values may come before it.

Columns and labels:
[1] = test system: mitochondrial membrane potential; experiment: Mitochondrial membrane potential (TMRE dye); format: cell-based, human; conditions: 250 nM CCCP
Experimental: Live Cell Imaging: 143B cells were seeded at 50% density in 6-well dishes 24 hours prior to the experiment. Cells were pre-incubated with 500 nM TMRE dye for 30 minutes and then imaging on a Nikon TE2000 inverted microscope was started. Images were taken at 1 minute intervals over the course of an hour in the mCherry channel while the plate was incubated in a chamber maintaining a temperature of 37° C. and 5% CO2.
Flow Cytometry: Cells were seeded 24 hours prior to the experiment at 50% density. On the day of the experiment, the cells were treated for the designated time with inhibitors. 30 minutes prior to the end of the incubation, 500 nM TMRE dye was added to the wells. Following incubation cells were washed, trypsinized, and filtered through a cell strainer prior to sorting. Fluorescence-activated cell sorting was performed on a LSR-II sorter, in which the fluorescence intensity of individual cells was quantified in the PE channel. Data were analyzed using FlowJo software (TreeStar).

complex I = experiment: Complex I activity assay (DCPIP) on purified mitochondria; format: biochemical, human; conditions: mitochondria from wild-type, UQCRC2 KO and COX4 KO 143B cells; 1 μM rotenone
Experimental: (§1) Isolation of Mitochondria for Biochemical Assays: 143B cells were scraped and pelleted at 1000×g for 5 minutes. Cell pellets were washed in 1×PBS and pelleted at 1000×g for 5 minutes. For tissue samples, approximately 100 mg of tissue powder was weighed out. Tissue powder or cells were re-suspended in isolation buffer (200 mM sucrose, 10 mM Tris HCl, 1 mM EGTA/Tris, pH 7.4 (adjusted with 1M HEPES)), transferred into an ice-cold glass homogenizer (VWR), and dounced with 15-30 strokes. Homogenates were transferred into tubes and spun at 600×g for 10 minutes at 4° C. Supernatants were moved to a new tube and centrifugation was repeated. Then, supernatants were moved to a new tube and pelleted at 7,000×g for 10 minutes at 4° C. Pellets were washed in isolation buffer and centrifugation was repeated. Pellets were subsequently stored at −80° C. until use.
Complex 1 activity assay (DCPIP): Purified mitochondria were re-suspended in buffer (0.22 M Mannitol, 0.075 M Sucrose, 1 mM EDTA, 10 mM HEPES pH 7.4, and one complete Protease inhibitor tablet (Sigma)) to a concentration of 5 mg/mL. […] Either 1 μM rotenone or equivalent DMSO was added to each well and baseline absorbance at 600 nm was measured on a SpectraMax iD5 plate reader (Molecular Devices). Reactions were initiated by adding NADH (Sigma) to a final concentration of 2 mM and absorbance at 600 nm was monitored over time.

SDH complex [2] = target: T1, SDH complex (Homo sapiens, UniProt O14521+P21912+P31040+Q99643); experiment: SDH forward/reverse activity (succinate oxidation, fumarate reduction) by stable isotope tracing in cells; format: cell-based
T1 construct: endogenous in cells; host or cells: 143B cells (A5: live cells; A6: permeabilized mitochondria purified from them)
Source text: Fumarate reduction can be monitored in cells by the stable isotope tracing of either ^13C4-aspartate or ^13C5^15N2-glutamine. ^13C4-aspartate contributes to the fumarate pool via oxaloacetate and malate and so should lead to the production of ^13C4-succinate upon fumarate reduction (FIG. 2B). ^13C5^15N2-glutamine contributes to the fumarate pool through the reductive arm of the TCA cycle via glutamate, α-ketoglutarate, isocitrate, citrate, oxaloacetate, and malate. A key distinction between the two labeling approaches is that ^13C5^15N2-glutamine enriches the fumarate pool more upon antimycin treatment due to enhanced reductive carboxylation flux, whereas ^13C4-aspartate labels the fumarate pool to equivalent extents in vehicle and antimycin-treated cells (FIG. 2C). Therefore, with stable isotope tracing of ^13C4-aspartate, the level of ^13C4-succinate is a direct measure of fumarate reduction, whereas the stable isotope tracing of ^13C5^15N2-glutamine requires a ratiometric analysis of labeled succinate to labeled fumarate to normalize for differences in the extent of fumarate labeling.
To test if hypoxia triggers electron leakage onto fumarate or a net-reversal of the SDH complex, the ^13C5^15N2-glutamine tracer was utilized, which enables simultaneous quantification of the forward and reverse activities of SDH through the generation of unique isotopologues upon flux through the oxidative arm (α-ketoglutarate to succinate) compared to the reductive arm (α-ketoglutarate—via citrate—to fumarate) of the TCA cycle (FIG. 2E). In this assay, the forward (succinate oxidation) reaction was defined as the ratio of percent labeled ^13C4-fumarate to its precursor ^13C4-succinate (FIG. 2E) and the reverse (fumarate reduction) as that of percent labeled ^13C3-succinate to its precursor ^13C3-fumarate (FIG. 2E). This type of analysis can be performed when the labeling is in the steady-state, which was determined to be after 4-8 hours of incubation with ^13C5^15N2-glutamine (FIG. S2E-F). This ratiometric analysis of the succinate and fumarate isotopologues eliminates potential biases in the assay, such as higher ^13C3-fumarate labeling in antimycin-treated cells caused increased reductive carboxylation flux (FIG. S2E).
Stable isotope tracing in cells: Cells were seeded 24 hours prior to the experiment in 6-well dishes at 70% density. For stable isotope tracing of glutamine, glutamine-free DMEM (ThermoFisher) was supplemented with 2 mM ^13C5^15N2-glutamine (Sigma), 1 mM pyruvate, 5% FBS, 1% P/S, 0.1 mg/mL uridine. For stable isotope tracing of aspartate, DMEM containing 5% FBS, and 1% penicillin and streptomycin, and 0.1 mg/mL uridine (Sigma) was supplemented with the designated amount of 13C4-aspartate (Sigma) and the pH adjusted to 7.4. Uridine was left out of the media for stable isotope tracing experiments measuring nucleotide biosynthesis. Unless otherwise stated, for all experiments, cells were treated for 8 hours and metabolites were isolated as described below. Relevant compounds were added at the start of the incubation periods.

143B cells [3] = experiment: Oxygen consumption rate of cultured cells; format: cell-based, human; conditions: UQCRC2 and COX4 knockout cells
Experimental: Oxygen Consumption Rate (Seahorse): Respiration was measured on intact 143B cells and on mitochondria purified from tissue on the Seahorse XFe-96 Analyzer (Seahorse Bioscience). Cells were incubated in a non-CO2 37° C. incubator in serum-free Seahorse XF RPMI Media (Seahorse Bioscience, Catalog #103336) supplemented with 5 mM glucose, 2 mM glutamine, and 1 mM pyruvate. Oxygen consumption rate (OCR) was measured over a period of 30 minutes. Oxygen consumption rate was also measured on mitochondria purified from mouse tissues. Mitochondria were incubated in MAS buffer (70 mM sucrose, 220 mM mannitol, 10 mM KH2PO4, 5 mM MgCl2, 2 mM HEPES pH 7.2, 1 mM EGTA, 2% BSA) supplemented with 2 mM ADP, 5 mM glutamate, 5 mM malate, 5 mM pyruvate, and 2.5 mM succinate. Oxygen consumption rate (OCR) was measured over a period of 30 minutes.
Oxygen Consumption Rate (Resipher): 25,000 143B cells were seeded into Thermo Nunc Treated, Flat-Bottom 96-Well Microplate (167008) in standard culture medium 24 hours prior to experimentation. […] Live oxygen consumption rate was measured for 3 hours and then media was changed to treat cells with the appropriate inhibitors. Live oxygen consumption rate was monitored for an additional 3 hours. Data were analyzed on Resipher web application (Lucid Scientific).

143B cells [4] = experiment: Cell proliferation; format: cell-based, human; conditions: for proliferation: UQCRC2 and COX4 knockout cells
Experimental: Proliferation: 25,000 cells were seeded in 6-well dishes and counted on day 1 and day 5 on a Beckman Coulter Counter. Doubling times were calculated using the following equation: […]

SDH complex [5] = experiment: SDH activity assay in permeabilized purified mitochondria; format: biochemical, human; conditions: permeabilized purified mitochondria; 1 μM piericidin
Experimental: SDH activity was examined in permeabilized purified mitochondria. The rate of succinate oxidation was measured by monitoring fumarate production over time after initiating the reaction with succinate. The rate of fumarate reduction was measured in a separate assay by monitoring the rate of succinate production over time after initiating the reaction with fumarate and NADH. […] Moreover, complex I inhibition by piericidin suppressed the fumarate reduction caused by antimycin treatment (FIG. 2I).
as §1
SDH Activity Assay: Purified mitochondria were re-suspended in buffer (0.22 M Mannitol, 0.075 M Sucrose, 1 mM EDTA, 10 mM HEPES pH 7.4, and one complete Protease inhibitor tablet (Sigma)) to a concentration of 5 mg/mL and underwent 5 freeze-thaw cycles to permeabilize them. 30 μg mitochondria (6 uL) were diluted 1:10 (in 54 uL) of SDH activity assay buffer (27.5 mM KH2PO4 pH 7.4, 1.1 mM CoQ-10 (Sigma), 3.5 g/L BSA). Reactions were supplemented with DMSO, 1 μM antimycin, or 1 μM piericidin and pre-incubated at 37° C. for 10 minutes. […] Samples were centrifuged at 16,000×g for 10 minutes at 4° C. and supernatants were dried down and analyzed by LC-MS for succinate and fumarate.

DHODH = DHODH (Homo sapiens, UniProt Q02127)
Sequence of DHODH (Q02127 whole entry): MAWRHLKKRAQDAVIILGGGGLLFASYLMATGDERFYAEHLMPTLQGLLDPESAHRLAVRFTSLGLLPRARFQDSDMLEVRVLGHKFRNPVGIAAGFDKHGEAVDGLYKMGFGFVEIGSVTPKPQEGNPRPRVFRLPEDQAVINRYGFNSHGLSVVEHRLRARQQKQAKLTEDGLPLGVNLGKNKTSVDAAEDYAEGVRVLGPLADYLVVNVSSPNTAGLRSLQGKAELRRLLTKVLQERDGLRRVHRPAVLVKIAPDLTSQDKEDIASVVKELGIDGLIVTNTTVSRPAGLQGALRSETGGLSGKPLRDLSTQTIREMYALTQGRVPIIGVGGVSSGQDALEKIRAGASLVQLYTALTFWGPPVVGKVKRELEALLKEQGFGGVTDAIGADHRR
Experimental: Isolation of metabolites from adherent cells: To isolate metabolites, media was removed, cells were washed 2 times with ice cold 1×PBS, and wells were covered in LC-MS grade 80:20 Methanol:Water (ThermoFisher). Plates were scraped on dry ice and lysates were collected into eppendorf tubes. Lysates were vortexed for 10 minutes at 4° C. and centrifuged at 16,000×g for 10 minutes at 4° C. Supernatants were immediately dried down in a Refrigerated CentriVap Benchtop Vacuum Concentrator connected to a CentriVap-105 Cold Trap (Labconco). Dried pellets were stored at −80° C. until they were run on LC-MS.
Liquid Chromatography and Mass Spectrometry (polar): A QExactive bench top orbitrap mass spectrometer equipped with an Ion Max source and a HESI II probe coupled to a Dionex UltiMate 3000 HPLC system (Thermo Fisher Scientific) was used to perform all LC-MS experiments. The instrument underwent mass calibration using the standard calibration mixture every 7 days. 2 μL of re-suspended polar metabolite samples were injected onto a SeQuant ZIC-pHILIC 5 μm 150×2.1 mm analytical column equipped with a 2.1×20 mm guard column (MilliporeSigma). The column oven was held at 25° C. and the autosampler tray was held at 4° C. Buffer A was comprised of 20 mM ammonium carbonate, 0.1% ammonium hydroxide. Buffer B was comprised of 100% acetonitrile. The chromatographic gradient was run at a flow rate of 0.150 mL/min as follows: 0-20 min: linear gradient from 80-20% B; 20-20.5 min: linear gradient from 20-80% B; 20.5-28 min: hold at 80% B. The mass spectrometer was operated in full-scan, polarity-switching mode, with the spray voltage set to 3.0 kV, the heated capillary at 275° C., and the HESI probe at 350° C. The sheath gas flow was 40 units, the auxiliary gas flow was 15 units, and the sweep gas flow was 1 unit. MS data was collected in a range of m/z=70-1000. The resolution set at 70,000, the AGC target at 1×106, and the maximum injection time at 20 msec. An additional scan (m/z=220-700) was included in negative mode only to enhance detection of nucleotides.

T1 sequence (P31040 43-664): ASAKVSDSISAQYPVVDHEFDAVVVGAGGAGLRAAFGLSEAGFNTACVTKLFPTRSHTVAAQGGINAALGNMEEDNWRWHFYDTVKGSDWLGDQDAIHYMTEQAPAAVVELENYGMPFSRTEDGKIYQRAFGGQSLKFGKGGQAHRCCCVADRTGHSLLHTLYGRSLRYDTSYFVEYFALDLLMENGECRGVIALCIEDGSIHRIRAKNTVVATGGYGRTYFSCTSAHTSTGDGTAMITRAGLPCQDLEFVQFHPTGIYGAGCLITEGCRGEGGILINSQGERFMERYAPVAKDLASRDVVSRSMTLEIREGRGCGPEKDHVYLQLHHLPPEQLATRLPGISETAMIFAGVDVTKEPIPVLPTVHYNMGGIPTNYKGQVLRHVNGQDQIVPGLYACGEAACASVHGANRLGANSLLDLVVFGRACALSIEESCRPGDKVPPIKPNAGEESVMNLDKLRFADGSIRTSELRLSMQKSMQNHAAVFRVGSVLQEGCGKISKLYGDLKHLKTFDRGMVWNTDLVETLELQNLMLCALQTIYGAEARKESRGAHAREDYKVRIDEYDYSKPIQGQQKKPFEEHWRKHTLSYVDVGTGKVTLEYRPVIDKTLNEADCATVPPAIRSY
T1 sequence (P21912 29-280): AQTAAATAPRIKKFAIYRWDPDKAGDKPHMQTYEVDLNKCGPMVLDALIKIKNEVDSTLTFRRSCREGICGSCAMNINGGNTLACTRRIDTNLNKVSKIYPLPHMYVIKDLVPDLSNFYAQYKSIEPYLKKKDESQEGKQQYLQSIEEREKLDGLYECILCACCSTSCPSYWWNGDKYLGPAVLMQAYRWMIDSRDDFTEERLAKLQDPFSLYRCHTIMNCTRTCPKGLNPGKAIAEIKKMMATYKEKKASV
T1 sequence (Q99643 30-169): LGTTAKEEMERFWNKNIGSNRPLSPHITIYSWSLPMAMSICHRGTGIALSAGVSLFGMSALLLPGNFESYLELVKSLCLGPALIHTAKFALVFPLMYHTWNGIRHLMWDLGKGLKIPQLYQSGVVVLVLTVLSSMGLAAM
T1 sequence (O14521 57-159): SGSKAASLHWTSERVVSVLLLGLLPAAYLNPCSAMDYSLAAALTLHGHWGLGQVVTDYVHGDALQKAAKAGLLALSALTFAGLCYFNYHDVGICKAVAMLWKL

SMILES: N#CC(C#N)=NNc1cccc(Cl)c1 [CCCP, Carbonyl cyanide 3-chlorophenylhydrazone]
TMRE fluorescence [1]: reduced fluorescence

SMILES: C=C(C)[C@H]1Cc2c(ccc3c2O[C@@H]2COc4cc(OC)c(OC)cc4[C@@H]2C3=O)O1 [rotenone]
complex I activity (complex I): significantly reduced

SMILES: CC1(C)CC(NC(=O)C[P+](c2ccccc2)(c2ccccc2)c2ccccc2)CC(C)(C)N1[O] [MitoTEMPO]
fumarate reduction (SDH complex [2]; antimycin-treated 143B cells): did not affect
fumarate reduction (SDH complex [2]; vehicle-treated 143B cells): significant decrease

SMILES: C/C=C(\C)[C@H](O)[C@H](C)/C=C(C)/C=C/C/C(C)=C/Cc1nc(OC)c(OC)c(O)c1C [piericidin]
O2 consumption rate (143B cells [3]): did not affect
proliferation (143B cells [4]): did reduce their proliferation, although to a lesser extent than in wild-type cells
fumarate reduction caused by antimycin treatment (SDH complex [5]): suppressed
DHODH activity (13C4-aspartate into 13C3-UTP) (DHODH; combined inhibition of complex III with antimycin and complex I with piericidin): no effect

fumarate reduction (SDH complex [2]; SDHB knockout cells): no effect
fumarate reduction (SDH complex [2]; UQCRC2 and COX4 knockout cells): almost completely ablated
SMILES: O=C(O)CC(=O)O [malonic acid]
proliferation (143B cells [4]): significantly reduced

increase in fumarate reduction caused by antimycin treatment (SDH complex [2]; 143B cells, antimycin co-treatment): slightly suppressed
SMILES: COC(=O)CCC(=O)OC [dimethylsuccinate]

13C3-UTP biosynthesis (DHODH; UQCRC2 and COX4 knockout 143B cells, 2 μM brequinar): ablated
de novo UTP biosynthesis (13C3-UTP generation, DHODH activity) (DHODH; wild-type 143B cells, 13C4-aspartate tracing 8 hours, 500 nM antimycin, 2 μM brequinar): ablated
SMILES: Cc1c(-c2ccc(-c3ccccc3F)cc2)nc2ccc(F)cc2c1C(=O)O [brequinar]
O2 consumption rate (143B cells [3]): no effect
proliferation (143B cells [4]): reduced
aspartate-increased proliferation of antimycin-treated cells (143B cells [4]; culture media supplemented with aspartate, antimycin-treated cells): ablated
